Data published in PMC11507441, “Oilseed Cakes: A Promising Source of Antioxidant, and Anti-Inflammatory Agents—Insights from Lactuca sativa” (International Journal of Molecular Sciences, 2024).
≈ marks a conversion by molar mass, not a printed value. Read-outs that look alike come from different tables or passages of the source.

Experiments:
C. albicans = test: Antimicrobial screening, zone of inhibition; format: cell-based; settings: Table 1; for zone of inhibition at 1000 µg/mL: Candida albicans, isolated compounds 1 mg/mL, read-out: C. Albicans Diameter of Inhibition Zone (mm); for C. Albicans %Activity Index: 1 mg/mL, relative to clotrimazole
Procedure: (§1) The procedure was performed according to […] et al.. A comparison of the extract's zone of inhibition to that of a reference antibiotic's activity index was determined using the following equation:Activity index = (the inhibition zone of extract/the inhibition zone of the standard) × 100

S. aureus = test: Antimicrobial screening, zone of inhibition; format: cell-based; settings: Table 1; for zone of inhibition at 1000 µg/mL: Staphylococcus aureus, isolated compounds 1 mg/mL, read-out: S. aureus Diameter of Inhibition Zone (mm); for S. aureus %Activity Index: 1 mg/mL, relative to ciprofloxacin
Procedure: as §1

E. coli = test: Antimicrobial screening, zone of inhibition; format: cell-based; settings: Table 1; for zone of inhibition at 1000 µg/mL: Escherichia coli, isolated compounds 1 mg/mL, read-out: E. coli Diameter of Inhibition Zone (mm); for E. coli %Activity Index: 1 mg/mL, relative to ciprofloxacin
Procedure: as §1

MCF-7 cancer cell line = test: Cytotoxic activity (MTT assay); format: cell-based; settings: for IC50: Homo sapiens; for Selectivity Index MCF-7: IC50 normal (WI-38)/IC50 cancer
Procedure: (§2) The HPLC was performed in the Institute for Plant Biology, TU Braunschweig, using a Young Lin quaternary pump, vacuum degasser, column oven (40 °C), diode array detector (YL9160 PDA), and a Midas Spark Holland autosampler. UV spectra (λ max) were measured in the central laboratory of the Faculty of Pharmaceutical Science at Mansoura University using spectroscopic methanol with an ultraviolet-visible spectrophotometer (Shimadzu 1601 PC, version TCC-240A, Kyoto, Japan). The NMR unit of Mansoura University’s Faculty of Pharmacy obtained nuclear magnetic resonance spectra (^1H-NMR, ^13C-NMR, DEPT-Q, APT, HSQC, and HMBC) using a Bruker DRX 600 NMR spectrometer (600 and 150 MHz for ^1H and ^13C-NMR, respectively) and with the Bruker Corporation Avance III 400 spectrometer, which measures ^1H and ^13C-NMR at 400 and 100 MHz, respectively. The types of solvents that are used are CDCl3, CD3OD, and DMSO-d6. For normal phase chromatography, silica gel G 60–230 mesh (Merck, Darmstadt, Germany) was packed using a wet or dry method in the specified solvent. The purchase of Normal Human lung fibroblast (WI-38), hepatic cancer cell lines (HePG-2), and mammary gland (MCF-7) cell lines from ATCC was made possible by the Holding firm for biological goods and vaccines (VACSERA), which is based in Cairo, Egypt.
(§3) Using the MTT test, the inhibitory effects of substances on cell growth were ascertained using the cell lines compared to normal lung fibroblast cells (WI-38). The selectivity index was calculated via the Selectivity index (SI) equation: SI equals IC50 normal/IC50 cancer.

HepG-2 cancer cell line = test: Cytotoxic activity (MTT assay); format: cell-based; settings: for IC50: Homo sapiens; for Selectivity Index HepG2: IC50 normal (WI-38)/IC50 cancer
Procedure: as §2, §3

[1] = Cytotoxic activity (MTT assay), normal cells; format: cell-based; settings: human, MTT, normal cells, read-out: In Vitro Cytotoxicity IC50 (µg/mL) WI-38
Procedure: as §2, §3

P. aeruginosa = test: Antimicrobial screening, zone of inhibition; format: cell-based; settings: Table 1; for zone of inhibition at 1000 µg/mL: Pseudomonas aeruginosa, isolated compounds 1 mg/mL, read-out: P. aeruginosa Diameter of Inhibition Zone (mm); for P. aeruginosa %Activity Index: 1 mg/mL, relative to ciprofloxacin
Procedure: The procedure was performed according to Stylianakis et al.. A comparison of the extract’s zone of inhibition to that of a reference antibiotic’s activity index was determined using the following equation:Activity index = (the inhibition zone of extract/the inhibition zone of the standard) × 100

ABTS antioxidant assay = format: biochemical; set-up: IC50 in ABTS assay: unit not given beside the values; settings: for IC50 in ABTS assay: unit not given
Procedure: The experiment was performed in triplicate according to Zaky et al.. The absorbance of control of the resulting green-blue solution (ABTS* radical solution) was recorded at λ max 734 nm.

[2] = HepG2, read-out: In Vitro Cytotoxicity IC50 (µg/mL) HepG-2

Structure (SMILES) | zone of inhibition at 1000 µg/mL (C. albicans) [mm] | C. Albicans %Activity Index (C. albicans) [%] | zone of inhibition at 1000 µg/mL (S. aureus) [mm] | S. aureus %Activity Index (S. aureus) [%] | zone of inhibition at 1000 µg/mL (E. coli) [mm] | E. coli %Activity Index (E. coli) [%] | Selectivity Index MCF-7 (MCF-7 cancer cell line) | Selectivity Index HepG2 (HepG-2 cancer cell line) | zone of inhibition at 1000 µg/mL (P. aeruginosa) [mm] | P. aeruginosa %Activity Index (P. aeruginosa) [%] | IC50 (HepG-2 cancer cell line; [2]) [µg/mL] | further results
CCC(CC[C@@H](C)C1CCC2C3CC=C4C[C@@H](O[C@@H]5O[C@H](CO)[C@@H](O)[C@H](O)[C@H]5O)CC[C@]4(C)C3CC[C@@]21C)C(C)C (stereo partly drawn) [Compound 5, β-sitosterol 3-O-β-D-glucoside] | 4.9 ± 0.1 | 18.2 | 10.8 ± 0.2 | 49.6 | 5.1 ± 0.1 | 19.6 | 0.66 | 0.54 | 7.9 ± 0.1 | 34.5 | – | IC50 (MCF-7 cancer cell line; MCF7, MTT, read-out: In Vitro Cytotoxicity IC50 (µg/mL) MCF-7): 52.8 ± 2.9 µg/mL (≈ 91.5 µM); IC50 (HepG-2 cancer cell line; HepG2, MTT, read-out: In Vitro Cytotoxicity IC50 (µg/mL) HepG-2): 63.6 ± 3.4 µg/mL (≈ 110 µM); IC50 ([1]; WI-38 normal lung fibroblast cells): 34.8 ± 2.1 µg/mL (≈ 60.3 µM)
O=C1O[C@H]([C@@H](O)CO)C(O)=C1O [Ascorbic acid] | – | – | – | – | – | – | – | – | – | – | – | IC50 in ABTS assay (ABTS antioxidant assay; fractions of lettuce seedcake extract): 29.47 ± 0.17; % inhibition in ABTS assay (ABTS antioxidant assay; seed cakes' methanolic extract at 1 mg/mL): 88.1%
O=C(O)c1cn(C2CC2)c2cc(N3CCNCC3)c(F)cc2c1=O [Ciprofloxacin, ciprofloxacin, reference compound] | – | – | – | – | 26 ± 0.3 | – | – | – | 22.87 ± 0.15 | – | – | –
COc1cccc2c1C(=O)c1c(O)c3c(c(O)c1C2=O)C[C@@](O)(C(=O)CO)C[C@@H]3O[C@H]1C[C@H](N)[C@H](O)[C@H](C)O1 [Doxorubicin, doxorubicin, reference compound] | – | – | – | – | – | – | – | – | – | – | 4.5 ± 0.2 (≈ 8.28 µM) | –
O=c1cc(-c2ccc(O)cc2)oc2cc(O[C@@H]3O[C@H](CO)[C@@H](O)[C@H](O)[C@H]3O)cc(O)c12 [Compound 4, apigenin 7-O-β-D-glucoside] | 5.95 ± 0.07 | 22.1 | 11.9 ± 0.15 | 50 | 6.8 ± 0.15 | 26.1 | 2.1 | 1.9 | 9.8 ± 0.15 | 42.8 | 43.4 ± 2.5 (≈ 100 µM) | IC50 (MCF-7 cancer cell line; MCF7, read-out: In Vitro Cytotoxicity IC50 (µg/mL) MCF-7): 39.8 ± 2.2 µg/mL (≈ 92 µM); IC50 [1]: 84.3 ± 4.3 µg/mL (≈ 195 µM); IC50 in ABTS assay (ABTS antioxidant assay; isolated compounds from lettuce seedcake): 51.27 ± 0.25
